For 18 compounds, GI50 and TGI results are on record in PubChem BioAssay (NCI).

What all share (test): inhibition of tumour cell growth, NCI panel, 48 h
The subject of test [1] is IGROV1 ovarian.
The test system of test [2] is SK-OV-3 ovarian.
For test [3], the system named is M14 melanoma.
Test [4] deals with K-562 leukemia.
The test system of test [5] is EKVX NSCLC.
Test [6] relates to HOP-62 NSCLC.
The test system of test [7] is SN12C renal.
Test [8] deals with OVCAR-8 ovarian.
The subject of test [9] is HOP-92 NSCLC.
Test [10] deals with RPMI-8226 leukemia.

“And” between values parts separate entries of the source, which are not always exact repeats. Equal values may be shown once.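 In this assay, cells in 96-well plates receive the compound at five concentrations for 48 hours. Endpoints are linearly interpolated between the surrounding concentrations. At the GI50, growth is halved. Definition used: TGI = concentration required for complete inhibition of growth.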

Take `C=CC(=O)Nc1cc2c(Nc3ccc(F)c(Cl)c3)ncnc2cc1OCCCN1CCOCC1`: the GI50 is 0.993 µM and 0.284 µM in test [1]; 0.0791 µM and 0.127 µM in test [2]; 1.7 µM and 4.48 µM in [3]; 1.91 µM and 2.84 µM in test [4]; 0.0262 µM and 0.0367 µM in test [5]; 3.27 µM and > 5.63 µM in test [6]. Besides, the GI50 in test [7] was 0.805 µM and 1.59 µM; in [8], 1.77 µM and 2.54 µM; in test [9] it was 0.534 µM and 0.551 µM; in test [10], 1.94 µM and 2.75 µM. Besides, the TGI in [1] was 3.26 µM and 2.88 µM; in [2] it was 4.1 µM and > 9.32 µM; in test [3], 3.52 µM and > 10 µM; in [4] it was 14.5 µM and > 10 µM; in test [5], 12.4 µM and > 10 µM; in test [6], 13.9 µM and > 10 µM. Further, the TGI was 6.8 µM and > 10 µM in test [7]; 6.67 µM and > 10 µM in [8]; 2.49 µM and 5.9 µM in test [9]; 5.17 µM and > 10 µM in [10].
`CNCCn1c(=O)c2cc(OC)c(OC)cc2c2ccc3cc4c(cc3c21)OCO4`: the GI50 in test [1] was 0.142 µM; in test [2], 0.157 µM; in test [3] it was 0.0786 µM; in [4] it was 0.0552 µM; in test [5], 0.266 µM; in [6], 0.0705 µM. Besides, the GI50 is 0.173 µM in test [7], 0.169 µM in test [8], 0.16 µM in test [9] and 0.0842 µM in test [10]. In addition, the TGI is 2.29 µM in [1]; 1.32 µM in [2]; 0.399 µM in [3]; 5.19 µM in test [4]; 5.01 µM in [5]; 1.08 µM in [6]. For the same compound, the TGI in test [7] turned out to be 3.97 µM; in test [8] it was 6.37 µM; in [9], 2.13 µM; in test [10], 0.376 µM.
Consider `CC(CCC(=O)O)C(=O)O` (stereo not drawn), for which the TGI in [1], in test [2], in test [3], in test [4], in [5] and in test [6] was over 100 µM each time. In addition, the TGI in test [7], in test [8], in test [9] and in test [10] was over 100 µM throughout.
For `CS(=O)(=O)CSCSSCS(C)(=O)=O`, the TGI in [1] was over 100 µM; in [2], over 100 µM; in test [3], 40.8 µM; in test [4], over 95.5 µM; in [5] it was over 100 µM; in test [6], over 100 µM. For the same compound, the TGI in test [7] was over 93.3 µM; in [8] it was over 100 µM; in test [9] it was 98.2 µM; in test [10], 55.3 µM.
For `O=C(O)c1ccc2c(c1)CCCC(c1ccc(Cl)cc1Cl)=C2c1ccc(O[C@H]2CCN(CCCF)C2)cc1`, the GI50 was 13.8 µM in [1]; 16.7 µM in test [2]; 13.2 µM in [3]; 8.05 µM in test [4]; 10.7 µM in [5]; 15 µM in [6]. The GI50 in [7] was 15.2 µM; in test [8], 13.5 µM; in test [9] it was 11.3 µM; in test [10], 6.99 µM. Further, the TGI was found to be 35.6 µM in [1]; 30.8 µM in test [2]; 28.7 µM in test [3]; 23.1 µM in [4]; 25.3 µM in [5]; 33.6 µM in test [6]. Also, the TGI was 31 µM in [7], 33.7 µM in test [8], 25.1 µM in test [9] and 27.5 µM in test [10].
On to `COc1cc2ncnc(Nc3ccc(F)c(Cl)c3)c2cc1NC(=O)/C=C/CN1CCCCC1`, for which the TGI in [1] was 2.96 µM and 2.07 µM; in test [2] it was 2.3 µM and 2.23 µM; in test [3], 3.4 µM and 3.26 µM; in test [4], 5.12 µM and > 8.09 µM; in test [5], over 10 µM; in test [6] it was 5.65 µM and > 9.66 µM. The TGI was 3.35 µM and 2.3 µM in test [7]; 5.35 µM and > 6.21 µM in test [8]; 2.43 µM and 5.63 µM in test [9]; 5.11 µM and 4.99 µM in test [10]. The GI50 in test [2] is 0.0171 µM and 0.00478 µM; in test [3], 1.72 µM and 1.61 µM; in test [4], 1.65 µM and 2.05 µM; in test [5] it was 0.00274 µM; in [6], 2.11 µM and 3.02 µM; in [7] it was 0.429 µM and 0.389 µM. Further, the GI50 is 1.28 µM and 1.64 µM in [8]; 0.0672 µM and 0.643 µM in [9]; 1.95 µM and 1.93 µM in test [10].
Turning to `OC1(c2ccccc2)OC(C#Cc2ccccc2)(c2ccccc2)c2ccccc21` (stereo not drawn), the TGI in [1] is 24.1 µM; in [2], 5.04 µM; in test [3], 3.97 µM; in [4], over 100 µM; in [5] it was 11.9 µM; in [6], 28.8 µM. The TGI in test [7] was found to be 10.2 µM; in [8], 5.87 µM; in [9] it was 13.2 µM; in test [10] it was 6.62 µM.
For the compound `COc1ccc(C2=NN(C=O)C(c3cccc(Nc4ccnc5cc(Cl)ccc45)c3)C2)cc1` (stereo not drawn), the GI50 is 3.71 µM in test [1]; 3.33 µM in [2]; 2.34 µM in test [3]; 0.511 µM in [4]; 2.8 µM in [5]; 2.11 µM in test [6]. The GI50 is 4.45 µM in test [7], 3.29 µM in [8], 3.41 µM in test [9] and 1.36 µM in test [10]. The TGI is over 100 µM in [1]; 23.3 µM in [2]; 15.9 µM in test [3]; 11.3 µM in [4]; over 100 µM in test [5]; 16.6 µM in test [6]. The TGI was over 100 µM in test [7], 27.6 µM in test [8], over 100 µM in test [9] and 11.2 µM in [10].
On to `Cc1cc(S(=O)(=O)NC#N)c(S/C(=N\Nc2ccc([N+](=O)[O-])cc2)c2ccc(Cl)cc2)cc1Cl`, for which the GI50 was over 100 µM in test [1]; 17.9 µM in [2]; 54.5 µM in test [3]; 35.3 µM in test [4]; 20.2 µM in test [5]; 41.6 µM in test [6]. Further, the GI50 is over 100 µM in [7], 31.7 µM in test [8], 19.4 µM in test [9] and 30.5 µM in test [10]. Moreover, the TGI was over 100 µM in test [1]; 57.6 µM in test [2]; over 100 µM in test [3]; 80.3 µM in test [4]; 70.2 µM in test [5]; over 100 µM in test [6]. In addition, the TGI in [7] was over 100 µM; in [8], over 100 µM; in [9], 96.9 µM; in test [10], over 100 µM.
With `CC1=C(C(=O)Nc2cccc(Cl)c2)C(c2ccccc2F)C(C(=O)Nc2cccc(Cl)c2)=C(C)N1`, the TGI in [1] is 47.3 µM; in test [2], 55.5 µM; in [3] it was 18 µM; in test [4] it was 24.6 µM; in test [5] it was 27.5 µM; in test [6] it was 31.3 µM. The TGI in test [7] stood at 23 µM; in test [8] it was 46.9 µM; in test [9], 8.7 µM; in test [10], 11.1 µM.
Regarding `CN(C)/N=C(/c1nc2ccc(Cl)cc2[nH]c1=O)C(O)c1ccc(C(O)/C(=N\N(C)C)c2nc3ccc(Cl)cc3[nH]c2=O)cc1` (stereo not drawn), the TGI in test [1], in [2], in test [3], in [4], in test [5] and in [6] was over 100 µM each time. Moreover, the TGI in test [7], in [8], in test [9] and in test [10] was over 100 µM throughout.
`CC[C@]1(O)C(=O)OCc2c1cc1n(c2=O)Cc2cc3c(N)cccc3nc2-1`: the TGI in test [1], in test [2], in test [3], in test [4], in test [5] and in test [6] was over 100 µM each time. Moreover, the TGI in test [7], in [8], in [9] and in [10] was over 100 µM in each case.
As for `CC[PH+](CC)CC.O=COC1OC([S-])C(OC=O)C(OC=O)C1OC=O.[Au+]` (stereo not drawn), the GI50 in [1] is 1.2 µM; in test [2], 1.85 µM; in [3], 1.15 µM; in test [4] it was 0.605 µM; in test [5], 1.74 µM; in [6] it was 1.58 µM. Besides, the GI50 in test [7] was 1.44 µM; in [8], 2.13 µM; in test [9] it was 2.04 µM; in test [10] it was 1.35 µM. The TGI in test [1] was 2.62 µM; in test [2], 3.36 µM; in [3], 2.81 µM; in test [4], over 100 µM; in [5] it was 3.32 µM; in [6] it was 3.2 µM. The TGI amounted to 2.75 µM in [7], 5.55 µM in [8], 3.66 µM in test [9] and 5.07 µM in test [10].
With `CC(C)c1cccc(C(C)C)c1NC(=O)/C(CC(=O)CC(c1ccccc1)c1c(O)c2ccccc2oc1=O)=N/O` (stereo not drawn), the TGI in [1], in test [2], in test [3], in test [4], in test [5] and in test [6] was over 100 µM throughout. The TGI in test [7], in [8], in test [9] and in [10] was over 100 µM throughout.
With `Nc1ccc(C(=O)CC(N)C(=O)O)cc1O` (stereo not drawn), the TGI in [1], in test [2], in [3], in test [4], in test [5] and in test [6] was over 100 µM in each case. For the same compound, the TGI in [7], in test [8], in test [9] and in [10] was over 100 µM each time.
As to `NC(=O)c1cc2c3ccccc3ccn2c1-c1ccccc1`, the GI50 in test [1] is 0.141 µM; in [2], 0.0503 µM; in test [3] it was 0.0706 µM; in [4] it was 0.12 µM; in test [5], 0.396 µM; in test [6], 0.446 µM. Also, the GI50 was 0.0889 µM in [7], 0.0937 µM in [8], 0.0179 µM in test [9] and 0.0371 µM in test [10]. The TGI was 33.4 µM in [1]; 12.7 µM in [2]; 17.7 µM in [3]; 11.8 µM in test [4]; 45.3 µM in test [5]; 18.8 µM in test [6]. Also, the TGI in test [7] stood at 15.2 µM; in test [8], 16.4 µM; in test [9] it was 7.77 µM; in test [10], 2.31 µM.
As to `C/C=C1\NC(=O)[C@H]2CSSCCC=C[C@H](CC(=O)N[C@H](C(C)C)C(=O)N2)OC(=O)[C@H](C(C)C)NC1=O`, the GI50 in test [1] was < 0.01 µM and 0.000421 µM; in [2], < 0.01 µM and 0.000175 µM; in test [3] it was under 0.01 µM; in test [4], < 0.01 µM and 0.000147 µM; in [5], under 0.01 µM; in [6], under 0.01 µM. Further, the GI50 in test [7], in test [8], in test [9] and in test [10] was under 0.01 µM each time. Further, the TGI in test [2] is < 0.01 µM and 0.00789 µM; in test [3], 0.263 µM and 0.0826 µM and 0.206 µM; in test [8], 0.0668 µM and 0.072 µM and 0.154 µM; in test [9], < 0.01 µM and 0.0161 µM and < 0.0324 µM.
For `N.N.N.N.O=C([O-])C(Cl)Cl.O=C([O-])C(Cl)Cl.[Co+3].[O-][Cl+3]([O-])([O-])[O-]`, the GI50 in [1], in test [2], in test [3], in test [4], in test [5] and in test [6] was over 100 µM each time. The GI50 in test [7], in [8], in [9] and in test [10] was over 100 µM in each case. Also, the TGI in [1], in test [2], in [3], in test [4], in [5] and in test [6] was over 100 µM each time. Further, the TGI in test [7], in test [8], in test [9] and in test [10] was over 100 µM throughout.
